Numbers after ± are expanded uncertainties.
Settings: 101.33 kPa, Liquid; for viscosity: Capillary tube (Ostwald / Ubbelohde) method; for mass density: Vibrating tube method

viscosity (288.15 K) [mPa·s]	mass density (288.15 K) [kg/m3]	viscosity (293.15 K) [mPa·s]	mass density (293.15 K) [kg/m3]	viscosity (298.15 K) [mPa·s]	mass density (298.15 K) [kg/m3]	viscosity (303.15 K) [mPa·s]	mass density (303.15 K) [kg/m3]	viscosity (313.15 K) [mPa·s]	mass density (313.15 K) [kg/m3]	Structure (SMILES)
0.864 ± 0.009	980.39 ± 0.07	0.803 ± 0.008	974.83 ± 0.07	0.757 ± 0.008	969.15 ± 0.08	0.7 ± 0.007	963.39 ± 0.08	0.616 ± 0.006	952.1 ± 0.08	CCOC(=O)OCC [diethyl carbonate]
11.07 ± 0.1	828.63 ± 0.12	9.161 ± 0.085	825.2 ± 0.12	7.688 ± 0.072	821.74 ± 0.12	6.404 ± 0.06	818.23 ± 0.12	4.62 ± 0.044	811.22 ± 0.12	CCCCCCCCO [octan-1-ol]
4.682 ± 0.045	818.32 ± 0.13	4.025 ± 0.039	814.63 ± 0.13	3.497 ± 0.034	810.96 ± 0.13	3.022 ± 0.029	807.26 ± 0.13	2.312 ± 0.023	799.78 ± 0.14	CCCCCO [pentan-1-ol]
1.313 ± 0.013	793.65 ± 0.12	1.216 ± 0.012	789.34 ± 0.12	1.132 ± 0.011	785.07 ± 0.12	1.01 ± 0.01	780.72 ± 0.12	0.824 ± 0.008	771.97 ± 0.13	CCO [ethanol]
2.507 ± 0.024	807.55 ± 0.12	2.202 ± 0.021	803.52 ± 0.13	1.973 ± 0.019	799.45 ± 0.13	1.733 ± 0.017	795.47 ± 0.13	1.381 ± 0.014	787.28 ± 0.13	CCCO [propan-1-ol]

— the NIST ThermoML archive (doi:10.1021/je1013476)
